# Source: patent US9808434B2, “Compound for treating cancer and diabetes” (CITY OF HOPE, priority 2011, dated 2017)
# How the values were obtained:
# [1] = system: Stat3, HIF-1α; test: Stat3 phosphorylation and HIF-1α expression in SKOV3, immunoblotting; type: cell-based, human; settings: SKOV3, 24 hours, 1-10 μM
# Method: SKOV3 cells were incubated with various concentrations of COH-SR4 (1˜10 μM) for 24 hours. Whole-cell lysates were analyzed by immunoblotting with antibodies against phosphorylated and total form of Stat3, Akt and MAPK, and HIF-1α. GAPDH was used as a loading control.
# [2] = system: PBT018; test: Glioma ATP viability assay, PBT018; type: cell-based; settings: Table 1; 72 hours
# Method: Cells of each cell line (U251, U87, PBT-017, PBT018, PBT003 and PBT028) were treated with various concentrations (0˜100 μM) of COH-SR4 for 72 hours. Cell viabilities were determined by ATP viability assays. Data were represented as a ratio to vehicle (DMSO) control, and plotted as mean±SEM (n=12) obtained from 2˜3 experiments (FIG. 34A).
# [3] = system: Glioma Cells PBT-017 and/or U251; test: Combination index COH-SR4 and 5-FU, cell line not stated; type: cell-based; settings: COH-SR4 <0.5 μM + 5-FU <125 μM
# Method: Effects of combination of COH-SR4 and a chemotherapy drug such as TMZ, SN38, CPT-11, and 5-FU were studied by combination index (CI) theorem and plot using the method described in Chou (“Experimental Design, and Computerized Simulation of Synergism and Antagonism in Drug Combination Studies,” Pharmacological Reviews, Vol. 58, No. 3), which is incorporated herein by reference in its entirety.
# COH-SR4 and a chemotherapy drug (TMZ, SN38, CPT-11, or 5-FU) were dissolved in DMSO individually, and then diluted to the appropriate concentration in the same cell culture media before applying to cells of each cell line. After 4 days, the amount of ATP present in the cell lysates were assessed using Progema's CellGlo kit. The CI of each combination of COH-SR4 and the chemotherapy drug was calculated and plotted against the concentration of COH-SR4 for each concentration of the chemotherapy drug used.
# [4] = target: T1, GSTP (Homo sapiens, UniProt P09211); test: GSTP activity towards CDNB in the presence of GSR4; type: biochemical; settings: activity towards CDNB; read-out: estimated Ki (product inhibitor of GSTP)
# T1 construct: made in house; host or cells: E. coli BL21 (DE3)
# Method: Furthermore, GSTP activities towards CDNB were assessed in the presence of various concentration of GSR4. The GSTP activities decreased when the concentration of GSR4 increased (Table 3). Thus, […] was a product inhibitor of GSTP with an estimated Ki of less than 5 μM.
# [5] = system: SK-Mel-31; test: Colony formation assay, SK-Mel-31; type: cell-based, human; settings: 5 μM
# Method: Cell survival was evaluated using a standard colony-forming assay. In total, 1×10^5 cells/mL were incubated with COH-SR4 (1.5 μM or 5 μM) or elesclomol (5 μM) for 24 h, and aliquots of 50 or 100 μL were added to 60 mm size petri dishes, containing 4 mL culture medium. After 7 or 10 days, adherent colonies were fixed, stained with 0.5% methylene blue for 30 min and colonies were counted using the Innotech Alpha Imager HP (91).
# [6] = system: isolated mouse liver mitochondria; test: Mitochondrial swelling assay; settings: potassium acetate buffer with valinomycin
# Method: Mitochondrial swelling was measured in non-respiring mouse liver mitochondria incubated in buffered isotonic potassium acetate in the presence of valinomycin (24,25). […] Absorbance of the mitochondrial suspension before and after addition test compounds was measured every 10 seconds using a Varian Cary 300 spectrophotometer (Agilent Technologies, Santa Clara, Calif.). Swelling was recorded from the decrease in absorbance at 600 nm and expressed as percentage from initial reading after addition of mitochondria.
# Mitochondrial membrane swelling was detected as decrease in absorbance at 600 nm following the addition of COH-SR4 or FCCP alone or in the presence of cysclosporin A (CSA, 1 μM) on isolated mouse liver mitochondria respiring on succinate (10 mM) in the presence of rotenone (1 μM) and valinomycin (5 μM) in potassium acetate buffer. […] Arrow indicates time of addition of test compounds into the mitochondria suspension.
# [7] = system: AMPK, ACC, Raptor, TSC2; test: AMPK-mTOR signaling in lung cancer cells, Western-blot; type: cell-based, human
# Method: Cell or tissue proteins were extracted with cell lysis buffer (Cell Signaling Technology) and protein concentration was determined using the DC Protein Assay kit (Bio-Rad, Hercules, Calif., USA). Equal amount of proteins (˜40 μg) were loaded onto 4-15% Criterion TGX gels (Bio-Rad, Hercules, Calif.), resolved by SDS-PAGE electrophoresis, and then transferred onto nitrocellulose membranes for immunoblotting. Membranes were blocked with 5% skimmed milk in Tris-buffered saline containing 0.05% Tween 20 before incubation overnight at 4° C. with desired primary antibodies. Immuno-reactive proteins were visualized by peroxidase-labeled secondary antibodies and ECL system (Western Lightning Chemiluminescence Reagent, Perkin-Elmer, Mass., USA). Equal loading of proteins was confirmed by stripping and re-probing the membranes with either β-actin or GAPDH antibodies. Band intensities were quantified using a densitometer (Quantity One, Bio-Rad, Hercules, Calif.).
# AMPK was knocked down by siRNA and assessed the impact on COH-SR4-induced cytotoxicity. […] Thus, the in-vitro analyses of critical signaling proteins of cell proliferation further supported the anti-cancer effects of COH-SR4 in lung cancer cells.
# T1 sequence (P09211 whole entry): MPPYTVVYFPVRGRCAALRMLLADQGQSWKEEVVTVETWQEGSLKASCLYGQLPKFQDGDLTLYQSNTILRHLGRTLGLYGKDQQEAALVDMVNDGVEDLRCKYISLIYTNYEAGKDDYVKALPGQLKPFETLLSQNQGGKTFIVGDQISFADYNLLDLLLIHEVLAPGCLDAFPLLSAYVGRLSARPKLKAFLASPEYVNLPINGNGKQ
compound,measurement,setting,value
"O=C(Nc1cc(Cl)cc(Cl)c1)Nc1cc(Cl)cc(Cl)c1 [COH-SR4, 1,3-bis(3,5-dichlorophenyl) urea]",phosphorylation of Stat3 and HIF-1α protein expression,[1],inhibited phosphorylation of Stat3 protein and HIF-1α protein expression
same,IC50,[2],6.5 µM
same,combination effect (CI) with 5-FU,[3],synergism
same,Ki,[4],< 5 µM
same,colony formation,[5],40±4%
same,mitochondrial swelling (absorbance at 600 nm),[6],mitochondrial swelling was observed
same,"phosphorylation of AMPK, ACC, Raptor, TSC2",[7],increased phosphorylation of AMPK (pAMPK)
